Reference: paper PMC7371863, “Intracellular interplay between cholecystokinin and leptin signalling for satiety control in rats” (Scientific Reports, 2020)
Like-named read-outs stand apart in the source and are kept apart here.

Columns and labels:
VMN cells = assay: Ca2+ imaging in rat VMN slices; format: cell-based; settings: for cells responding exclusively to leptin or CCK-8s, VMN (discussion): approximately, population analysis; for Rmax, Ca2+ concentration response / EC50: four-parameter Hill function; for EC50: read-out: EC50, Ca2+ concentration response
pSTAT3 in C6-ObRb cells = assay: Immunofluorescent staining of pSTAT3 in C6-ObRb cells; format: cell-based, rat C6 cells, mouse ObRb
Protocol: Rat C6 glioma cells were cultured in Dulbecco’s Modified Eagle Medium/F12 (DMEM/F12) supplemented with 10% FBS, sodium bicarbonate (1.2 g/L), and 1% penicillin/streptomycin antibiotics at 37 °C in 5% CO2. The full-length mouse leptin receptor (ObRb) in pcDNA3.1 vector was kindly provided by Dr. Christian Bjørbaek (BIDMC, Harvard Medical School, Boston, MA, USA) and transfected using Lipofectamine 2000. Subsequently, the cells were cultured in medium containing 500 μg/mL G418 for cell selection.
[…] Cells were treatment with AG490 (1 μM) or LY294002 (50 μM) 15 min prior to the leptin stimulation until the time of fixation. These cells were fixed in 4% phosphate-buffered paraformaldehyde for 15 min and washed three times with PBS(−). The fixed samples were then incubated for 2 h at room temperature in 10% donkey serum dissolved in 0.1% Triton-X PBS(−). Next, samples were incubated with 1:100 affinity-purified rabbit phospho-STAT3 (pTyr^705) dissolved in 5% donkey serum PBS(−) for 24 h at 4 °C. After three 20-min PBS(−) rinses, samples were incubated in 1:400 Cy3-conjugated donkey anti-rabbit IgG for 2 h at room temperature. Finally, samples were rinsed with PBS(−) (four 15-min rinses on an orbital shaker) and mounted using Vectashield containing 4′,6-diamidino-2-phenylindole (DAPI).
(§1) Images were acquired using a confocal laser-scanning microscope (Olympus FV1000 or Nikon A1R MP plus) with a laser diode (405 nm), argon laser (488 nm), and helium neon laser ([…]). The nuclear immunofluorescent intensity (8-bit depth) was analyzed using Photoshop CS 6 software.

[1] = system: nuclear pSTAT3 in the rat VMN; assay: Nuclear pSTAT3-ir in VMN after i.c.v. injection; format: in vivo
Protocol: A guide cannula (cut length 5 mm, no. C315G; Plastics One Inc.) was stereotaxically implanted to the right lateral ventricle of each rat, with the coordinates of 0.8 mm posterior to the bregma, 1.4 mm lateral to the midline, and 3.3 mm ventral from the skull surface. The canula was secured on the skull surface with two stainless steel screws and dental acrylic resin. The rats were then allowed to recover in their home cage for at least 1 week. Leptin (4 µg) and CCK (2 µg) were dissolved in 4 µl ACSF and administered through an internal cannula (cut length 5.5 mm, no. C315I; Plastics One Inc. C315I). To minimize the effect of endogenous signals, the rats were deprived of food for 10 h (08:00–18:00) before i.c.v. administration. Drugs were infused at a flow rate of 1 µl/min over 4 min using a motorized syringe pump (Carnegie Medicine model CMA/102), followed by another 4 min of rest for diffusion. One hour after i.c.v. administration, the rat brain was removed for immunohistochemical analysis.
For immunohistochemical analysis of rat hypothalamic slices, animals were deeply anesthetized with an i.p. injection of sodium pentobarbital (50 mg/kg) and transcardially perfused with PBS(−) for 5 min followed by ice-cold 4% (w/v) paraformaldehyde in PBS(−) for 15 min. The brain was removed and further fixed in the same fixative (4 °C, overnight). Then, the olfactory bulbs and/or cerebellum were removed from the brain in ice-cold PBS(−). Pre-trimmed brain tissues were immersed in 30% (w/v) sucrose and stored overnight at 4 °C. The fixed and cryoprotected brain tissues were embedded with OCT compound. Frozen sections of 30 µm thickness were cut using a cryostat microtome and washed three times with PBS(−) in 24-well plates, after which they were mounted on glass slides. […]
as §1

VMN neurons = assay: Whole cell patch clamp, action potential firing in VMN neurons; format: cell-based, rat; settings: for action potential firing frequency: n.s.
Protocol: The VMH slices (300-μm thickness) were prepared following deep pentobarbital anaesthesia administration to postnatal day (PD) 12–16 rats using a vibrating blade microtome in ice-cold high-Mg^2+ artificial cerebrospinal fluid (ACSF) containing 138.6 mM NaCl, 3.35 mM KCl, 21 mM NaHCO3, 0.6 mM NaH2PO4, 9.9 mM D-glucose, 0.5 mM CaCl2, and 4 mM MgCl2 bubbled with 95% O2/5% CO2. The slices were incubated at room temperature for 1 h in regular ACSF containing 2.5 mM CaCl2, and 1.0 mM MgCl2 bubbled with 95% O2/5% CO2. Subsequently, the slices were transferred to an upright microscope stage (Olympus BX50WI). The recording chamber was perfused with oxygenated normal ACSF at 3 ml/min at 34 °C. VMN neurons were visualized through an infrared CCD camera (Hamamatsu Photonics C2741-79). Neurons were recorded in the whole-cell current-clamp mode using a patch-clamp amplifier (Axon Instruments Axopatch 200B). The recordings were performed using patch pipettes with an access resistance of 4–6 MΩ and internal solution containing 135 mM potassium gluconate, 5 mM KCl, 10 mM HEPES, 0.1 mM CaCl2, 1.0 mM EGTA, 10 mM phosphocreatine, 2 mM Mg-ATP, and 0.2 mM Na-GTP (pH adjusted to 7.3 with KOH). The output of the amplifier was digitised using an A/D converter board (Axon Instruments Digidata 1200) with a sampling rate of 10 kHz and recorded on a hard disk by data acquisition software (Axon Instruments pCLAMP 8). Membrane potentials were low-pass-filtered at 2 kHz. Resting membrane potentials less than − 60 mV were set to approximately − 60 mV by current injections. Stimulants were applied by the gravity drop perfusion system. Further details of electrophysiological recordings were described previously.

ARC cells = format: cell-based, rat; settings: leptin 500 nM; 12 slices; 0.5 µM tetrodotoxin; 34 °C; mean with standard error
[2] = leptin with co-stimulation of 1 nM CCK-8s

## CCK-8s [reference compound]
VMN cells; CCK-8s 1 nM alone, n = 216 in 18 slices
  Ca2+ transients in slice preparation: failed to evoke Ca^2+ transients
VMN cells; CCK-8s 1 nM with leptin 1–1,000 nM, p < 0.01 two-way ANOVA
  effect of co-stimulation on leptin-induced Ca2+ responses: amplified leptin-induced Ca^2+ responses
VMN cells; CCK-8s 10 nM versus leptin 500 nM, 11 slices, mean with standard error
  cells that exclusively responded to CCK-8s, VMN: 5.2 ± 1.1%
VMN cells; CCK-8s 10 nM, leptin 500 nM, 11 slices, mean with standard error
  leptin responders also responding to CCK-8s, VMN: 81.3 ± 9.1%
VMN cells; leptin 500 nM and CCK-8s 10 nM
  cells responding exclusively to leptin or CCK-8s, VMN (discussion): 5–12%
  cells showing leptin-induced Ca2+ increase that also responded to CCK-8s (discussion): more than 80%
pSTAT3 in C6-ObRb cells; CCK-8s 50 nM
  cytosolic pSTAT3-ir: induced cytosolic pSTAT3-ir
pSTAT3 in C6-ObRb cells; CCK-8s 50 nM with leptin 100 nM, 30 images/three dishes, p < 0.01
  nuclear pSTAT3-ir on co-stimulation versus leptin alone: significantly smaller than that by leptin stimulation alone
pSTAT3 in C6-ObRb cells; CCK-8s 50 nM, 30 images/three dishes, p < 0.01
  nuclear intensity of pSTAT3-ir versus unstimulated controls: significantly smaller in the CCK-8s-treated group than in unstimulated controls
[1]; CCK-8s 2 µg co-injected with leptin 4 µg i.c.v.
  nuclear pSTAT3 levels in VMN versus single leptin injection: reduced nuclear pSTAT3 levels in the rat VMN compared with single leptin injections
VMN neurons; CCK-8s 1 nM, n = 9, spontaneous 1.45 ± 0.07 Hz, − 60 mV, 34 °C
  action potential firing frequency: 1.28 ± 0.15 Hz

## leptin: peptide hormone secreted from white adipocyte tissue, product of the obese gene; PeproTech Cat#450-31
ARC cells
  cells with monophasic Ca2+ increase, ARC: 25.9% ± 4.5
VMN cells; leptin 500 nM and CCK-8s 10 nM
  cells responding exclusively to leptin or CCK-8s, VMN (discussion): 5–12%
VMN cells; leptin 500 nM versus CCK-8s 10 nM, 11 slices, mean with standard error
  cells that exclusively responded to leptin, VMN: 12.2 ± 1.5%
VMN cells; leptin 500 nM, 11 slices, 0.5 µM tetrodotoxin, 34 °C, mean with standard error
  cells with monophasic Ca2+ increase, VMN: 65.4 ± 7.5%
VMN cells; leptin alone
  Rmax, Ca2+ concentration response: 0.2
  EC50: 153 nM
VMN cells; leptin with 1 µM LGM
  Rmax, Ca2+ concentration response: 0.14
  EC50: 163 nM
VMN cells; [2]
  Rmax, Ca2+ concentration response: 0.26
  EC50: 42.8 nM
pSTAT3 in C6-ObRb cells; leptin 100 nM, 30 images/three dishes, p < 0.01 one-way ANOVA
  nuclear pSTAT3-ir: significantly increased pSTAT3-ir in the nuclei
[1]; leptin 4 µg i.c.v., 1 h, 10 h food-deprived, p < 0.01
  number of nuclear pSTAT3-ir in VMN relative to vehicle-injected control: three times
[1]; leptin 4 µg with CCK-8s 2 µg i.c.v., 1 h, n.s.
  number of nuclear pSTAT3-ir in VMN, co-administration, versus vehicle: failed to increase the number of nuclear pSTAT3-ir
VMN neurons; leptin 30 nM with CCK-8s 1 nM
  neurons with apparent (> twofold) increase in firing frequency, co-stimulation: Five neurons in nine recordings
VMN neurons; leptin 30 nM with CCK-8s 1 nM, n = 9, p < 0.01, spontaneous 1.45 ± 0.07 Hz, − 60 mV, 34 °C
  action potential firing frequency, co-stimulation: 3.49 ± 0.68 Hz
VMN neurons; leptin 30 nM with CCK-8s 1 nM, single neuron maximum
  highest action potential firing frequency, co-stimulation: 5.5 Hz
VMN neurons; leptin 30 nM, n = 9, spontaneous 1.45 ± 0.07 Hz, − 60 mV, 34 °C
  action potential firing frequency: 1.55 ± 0.13 Hz
